Experimental data reported in patent US11117919B2, “Icariside compound, preparation method thereof, and application thereof” (FOSHAN GOLDEN HEALTH TECHNOLOGY CO., LTD., priority 2015, dated 2021).

Columns and labels:
[1] = tested on: human peripheral blood mononuclear cells (PBMCs); assay: Immunological screening model: IFN-γ produced in human PBMCs; type: cell-based
Description: The present inventors have long been researching the active components in traditional Chinese herbal medicine and their applications in immunotherapy. The present inventors have established an immunological test model based on determination of the level of IFN-γ produced in human peripheral blood mononuclear cells (PBMCs). By this model, compounds having promotion (or inhibition) effects on human peripheral blood mononuclear cells (PBMCs) to produce γ-interferon can be screened out from chemical components from various sources including traditional Chinese herbal medicine, medicinal plants and so on. Since the γ-Interferon is an important protein (cytokine) in human body's immune system to resist attacks from diseases, its production level in body directly relates to the body's immunity. Therefore, the model is an ideal tool to screen and find functional pharmaceuticals for improving human immunity.
In addition, all the results and achievements of the present invention are based on the very effective screening model established by the present inventors. Therefore, a further objective of the present invention is to provide an experimental model for screening substances having impacts (either enhance or inhibit) on immunity. […] Finally, by using ELISA techniques, the levels of IFN-γ produced in the culture were measured at different incubation time. […]

[2] = tested on: S180 ascites tumor of mice; assay: Inhibition of S180 tumor growth in mice; settings: 60 mg/Kg i.p., 10 days
Description: NIH mice used for the tests were about 18-22 grams and divided into 10 mice per group. The liquid (0.2 ml) of S180 ascites tumor of mice was inoculated subcutaneously into the armpit region of mice. The next day after the inoculation, each group of mice were injected intraperitoneally: (1) physiological saline group; (2) solvent control group (DMSO); (3) positive control group [cyclophosphamide 60 mg/(kg·d)]; (4) low-dose group 1: icariside I 2 mg/(kg·d); (5) low-dose group 2: icariside I 5 mg/(kg·d); (6) middle-dose group: icariside I 10 mg/(kg·d); (7) high-dose group: icariside I 20 mg/(kg·d). After administration for 10 continuous days, the administration was stopped and on the next day, the mice were weighed and sacrificed with tumor mass stripped and weighed. The physiological saline group and solvent group were used as a control for calculation of tumor inhibition rate.

[3] = tested on: human peripheral blood mixed lymphocytes; assay: IFN-γ production in mixed lymphocyte culture (MLC) reaction; type: cell-based; settings: final concentration 1000 ng/ml, 120 h
Description: Effect of icariside I on promotion of γ-interferon (interferon-gamma, IFN-γ) production by human peripheral blood mixed lymphocytes during culture (an experimental model mimicking enhancing immunity in human body).
(1) Preparation of human peripheral blood mononuclear cells (PBMCs): following the method in Example 5 (2), peripheral blood PBMCs from two normal human were prepared.
Cell concentrations of freshly isolated peripheral blood mononuclear cells (PBMCs) were adjusted to […] with RPMI1640 complete medium. Then, lymphocytes from two healthy human with equal volumes were mixed to maintain a total cell concentration of […]. Different concentrations (in a gradient) of or no icariside I were added thereto (with final concentration of 100 ng/ml, 1000 ng/ml) followed by fully mixing. Then the cells after stimulation were seeded and cultured in a 96-well round-bottom culture plate. The cell concentration per well was maintained at 2×10^5/ml (200 μl/well) and was incubated at 37° C. with 5% CO2 for 120 h in an incubator. The levels of cytokine IFN-γ were detected.
According to the method stated in Example 5 (4), the γ-interferon generated from human peripheral blood mixed lymphocyte culture (MLC) was detected.
Equal cell concentrations of lymphocytes from healthy human were mixed cultured for five days (120 h). The pharmaceutical icariside I was added (in a gradient of different pharmaceutical concentrations) or not added. […] Among them, the human lymphocyte A control is a group of samples containing only one kind of human lymphocyte, while human lymphocyte B control is a group of samples containing two kinds of human lymphocytes, that is, a control group in which two kinds of human lymphocytes were mixed for culture without adding icariside I. The concentrations of icariside I added were 0.1 and 1 μg/ml respectively. *P<0.05; **P<0.01. […]
Cell concentrations of freshly isolated peripheral blood mononuclear cells (PBMCs) were adjusted to 5×10^5/ml with RPMI1640 complete medium. […] The level of cytokine IFN-γ produced was then detected.

## CC(C)=CCc1c(OC2OC(CO)C(O)C(O)C2O)cc(O)c2c(=O)c(O)c(-c3ccc(O)cc3)oc12 (stereo not drawn) [icariside C]
[1]
  effect in promoting PBMCs to generate IFN-γ: significant effect

## O=P1(N(CCCl)CCCl)NCCCO1 (stereo not drawn) [cyclophosphamide, reference compound]
[2]
  change of body weight (g): +4.5 g
  tumor inhibition rate (%) with physiological saline group as control: 42.3%
  tumor inhibition rate (%) with solvent group as control: 55.2%
  weight of tumor (x ± SD, g): 0.6 ± 0.06 g

## COc1ccc(-c2oc3c(CC=C(C)C)c(O[C@@H]4O[C@H](CO)[C@@H](O)[C@H](O)[C@H]4O)cc(O)c3c(=O)c2O[C@@H]2O[C@@H](C)[C@H](O)[C@@H](O)[C@H]2O)cc1 [icariin, reference compound]
[3]
  ability to promote human γ-interferon production in mixed lymphocyte culture: almost no effect
